For experiment [1], the system named is P. aeruginosa ATCC 27853. Briefly: MIC/MBC, modified macrobroth dilution. The experiment is classed as cell-based, Pseudomonas aeruginosa. On the procedure:
(§1) The final concentration of bacteria in each macrobroth dilution tube was approximately 5×10^5 cfu/ml of Ca-MHB. Serial twofold dilutions of meropenem were used. […] Samples (50 μl) from clear tubes and the cloudy tube with the highest drug concentration were plated on Mueller-Hinton agar (MHA) plates (Hardy Diagnostics, Santa Maria, Calif.). […] Drug carry-over effect was assessed by visual inspection of the distribution of colonies on media plates. The studies were conducted in duplicate and repeated at least once on a separate day.
In general terms: Broth dilution looks for growth in wells or tubes with falling amounts of substance.

The test system of experiment [2] is P. aeruginosa PA 27853 and resistant isolates MR1, MR2, MR3. Briefly: microbe, parasite or virus in culture. Particulars: for MIC: Pseudomonas aeruginosa. The experiment is classed as cell-based, Pseudomonas aeruginosa. On the procedure: as §1, with “Minimum inhibitory concentration (MIC)/minimum bactericidal concentration (MBC) were determined in Ca-MHB using a modified macrobroth dilution method as described by the CLSI (10). The final” for “The final”

Experiment [3] deals with Pseudomonas aeruginosa. Format: cell-based.
Protocol: The computer simulations were compared to experimental data from an in-vitro hollow fiber infection model with similar antimicrobial agent exposures (20). Basically the drug was injected directly into the central reservoir to achieve the peak concentration desired. Fresh (drug-free) growth medium (Ca-MHB) was continuously infused from the diluent reservoir into the central reservoir to dilute the drug in order to simulate drug elimination in humans. An equal volume of meropenem-containing medium was removed from the central reservoir concurrently to maintain an isovolumetric system. […]
Various elimination half-lives (1-3 hours) of meropenem were simulated and were validated subsequently in the infection models. Serial samples were obtained at baseline and daily (pre-dose) in duplicate from each hollow fiber system, for quantitative culture to define the effect of various drug exposures on the total bacterial population and on selection of resistant bacterial sub-populations.
Prior to culturing the bacteria quantitatively, the bacterial samples were centrifuged at 15,000 G for 15 minutes and reconstituted with sterile normal saline in order to minimize drug carry-over effect. Total bacterial populations were quantified by spiral plating 10× serial dilutions of the samples (50 μl) onto drug-free Mueller-Hinton agar (MHA) plates (Hardy Diagnostics, Santa Maria, Calif.). […]
The subject of experiment [4] is amikacin resistant A. baumannii isolates. The experiment is described as follows: Resistance confirmation, repeat susceptibility testing, amikacin. Particulars: amikacin resistant isolates. Format: cell-based, Acinetobacter baumannii.
Protocol: The media plates were incubated at 35° C. for up to 24 (total population) and 72 hours (sub-populations with reduced susceptibility), then bacterial density from each sample was enumerated visually. The theoretical lower limit of detection was 400 CFU/ml.
Experiment [5] deals with P. aeruginosa ATCC 27853 and its isogenic OprD− mutant (1000:1). Briefly: Murine pneumonia model. Format: in vivo, mice. On the procedure:
Female Swiss-Webster mice (22-26 g) were used; all mice were cared for in accordance to the highest humane and ethical standards, as approved by the Institutional Animal Care and Use Committee (IACUC). The animals were housed in isolation boxes to decrease the risk of infection from extraneous pathogens. They received food and water ad libitum. The animals were rendered neutropenic by 2 intra-peritoneal injections of cyclophosphamide (Sigma, St. Louis, Mo.) 150 mg/kg on day −4 and 100 mg/kg on day −1 prior to infection; previous studies have shown that this regimen would produce neutropenia for 5 days (13, 16). Transient nephrotoxicity was induced by 1 intra-peritoneal injection of uranyl nitrate (5 mg/kg on day −2), which has been previously shown to produce a significant stable reduction in renal function for at least 7 days (21).
Each mouse was anesthetized with a single intra-peritoneal dose ([…]) of tribromoethanol (Sigma, St. Louis, Mo.), and was intubated under laryngoscopic guidance. For each mouse, the correct placement of endotracheal tube was verified by placing a cooled mirror surface close to the exit to observe water vapor condensation. A few colonies of the bacterial isolates were inoculated into Ca-MHB and incubated at 35° C. until they reached late log phase growth. The bacterial suspension was diluted to the desired concentration of approximately 10^8 CFU/ml based on absorbance at 630 nm; a mixture of wild-type and its isogenic OprD^− mutant in a 1000:1 ratio was used to mimic a heterogeneous bacterial population. The inocula (10 μl) were directly inoculated into the trachea of the anesthetized animals.
Two hours after infection, 3 mice were sacrificed by CO2 asphyxiation to ascertain the bacterial burden in lung tissues. The lung tissues were aseptically collected and homogenized in 10 ml of sterile saline. The homogenates were centrifuged at 6000×G for 15 minutes. The supernatant was discarded and the pellets were re-suspended in normal saline to 10× their original volumes in order to minimize drug carry-over effect. They were then diluted ten-fold serially and quantitatively cultured on Mueller-Hinton agar (MHA) plates (Hardy Diagnostics, Santa Maria, Calif.) and MHA plates supplemented with meropenem at 3× the MIC of the wild-type isolate. The media plates were incubated at 35° C. in a humidified incubator for up to 24 hours (for MHA plates) and 72 hours (for meropenem-supplemented MHA plates) before reading and the bacterial burden in lung tissues enumerated.
The remaining mice were observed every 8 hours for 4 days, with or without meropenem (400 mg/kg) given intra-peritoneally every 8 hours (10 mice in each group). Total bacterial burden and those with reduced susceptibility in animal lung tissues were determined in a similar manner upon death or at the end of the experiment. Susceptibility testing was repeated on representative isolates recovered from meropenem-supplemented plates to confirm the presence of resistance.

The mark [6] stands for this setting: 10 mice received meropenem treatment.

Structures are written as SMILES. Values after ≈ are worked out from the molar mass of the structure shown. Like-named read-outs stand apart in the source and are kept apart here. A value given as a limit tells only on which side of the number the result lay.

As a reminder, the MBC is the smallest concentration meeting the test's criterion for killing. For `C[C@@H](O)[C@H]1C(=O)N2C(C(=O)O)=C(S[C@@H]3CN[C@H](C(=O)N(C)C)C3)[C@H](C)[C@H]12` [meropenem], in experiment [1] (Pseudomonas aeruginosa, ATCC27853, P. aeruginosa isolate, read-out: MBC), the minimal bactericidal concentration (MBC) stood at 1 µg/mL (≈ 2.61 µM). Besides, the MIC was found to be 1 µg/mL (≈ 2.61 µM) in experiment [1] (Pseudomonas aeruginosa, ATCC27853, P. aeruginosa isolate, read-out: MIC); 1 µg/mL (≈ 2.61 µM) in experiment [1] (wild-type isolate used in vivo); 4 µg/mL (≈ 10.4 µM) in experiment [2] (OprD− isolate used in vivo); 4 µg/mL (≈ 10.4 µM) in experiment [2] (strain MR1 (Placebo exposure, OprD−), macrobroth method); 64 µg/mL (≈ 167 µM) in experiment [2] (strain MR2 (Cmin/MIC 0.5, OprD− & Mex+), macrobroth method); 32 µg/mL (≈ 83.4 µM) in experiment [2] (strain MR3 (Cmin/MIC 1.7, OprD− & Mex+), macrobroth method, read-out: MIC). Also, in experiment [2] (strain PA 27853, macrobroth method), the MIC was 1 µg/mL (≈ 2.61 µM). In addition, the stability of resistance result in experiment [2] (resistant isolates recovered from MEM-supplemented plates) is “phenotypically stable”. Further, the microbial response result in experiment [3] is “associated with regrowth”. The “Cmin/MIC necessary to suppress the emergence of resistance” value in experiment [3] (Cmax 64 μg/ml, dosing every 8 hours for 5 days) is reported as at least 4. The cross-resistance result in experiment [4] is on record as “not”. The “survival over 4 days” value in experiment [5] (400 mg/kg intra-peritoneally every 8 hours) stood at 100%. The “animals with complete replacement of bacterial population by the OprD− mutant in lung tissue” value in experiment [5] (400 mg/kg intra-peritoneally every 8 hours, 96 hours) is given as 30%. Besides, in experiment [5] (setting [6]), the “mice in which resistance emergence was found” value is listed as 3 mice. Moreover, the “mice that survived up to 96 hours” value in experiment [5] (setting [6]) is listed as 10 mice. Also, the “MIC of isolates recovered from meropenem-supplemented MHA plates compared to the OprD− mutant” value in experiment [5] (repeat susceptibility testing) is “did not reveal a substantial increase in MIC”.

These data come from patent US8452543B2, “High throughput screening for antimicrobial dosing regimens” (priority 2005, dated 2013).
